Where a name gives a salt, the structure may show the parent alone. Read-outs that look alike come from different tables or passages of the source.
Legend:
PEX405 cells [1] = experiment: Beta-oxidation of d4-C24:0 (LC-MS/MS); type: cell-based, human; settings: 3 days of treatment, dose response manner
Method: Degradation (to d4-C16:0) and elongation (to d4-C26:0 and d4-C28:0) of d4-VLCFA (very long chain fatty acid) in the cells was measured using d4-C24:0 as substrate (D-6145-CDN isotopes). D4-C24:0 was solubilized in culture medium using α-cyclodetrin, with a molar ratio of d4-C24:0:α-cyclodextrin 1:50. Cyclodextrins, which are cyclic oligosaccharides, are commonly used to solubilize fatty acids by complexation, for supplementation of cell culture media, and serve as vehicle to deliver fatty acids to the cells. Cyclodextrins have a polar surface and a hydrophobic cylindrical cavity that can bind and solubilize a wide variety of hydrophobic molecules, such as fatty acids, while remaining soluble in water. The assay was performed in T75 culture flasks for 3 or 10 days. The medium was replaced by fresh medium every 2-3 days and supplemented with d4-C24:0 for the last 3 days. After 3 or 10 days, cells were harvested and lysated in water (100-200 µL) by freeze/thaw cycle and sonication for 5 min. Total proteins were quantified using BCA assay and 100 µg of total proteins were used for each sample.
After cell lysis, the samples were dried using a rotating evaporator (Genevac EZ-2, SP Scientific), set at 40°C for 2h under vacuum. After evaporation, a hydrolysis mix consisting of 90% acetonitrile and 10% NaOH 1N in water was added to the samples. The samples were incubated for 1h at room temperature under stirring (300 rpm). After hydrolysis, the samples were evaporated using a Genevac device, under vacuum, at 40°C for 2h.
Derivation of free fatty acids was done using a 2.5 mg/mL Na2CO3 solution in DMF and a 2.5 mg/mL TMAE (trimethylammoniumethyl) reagent solution in DMF. The solutions were mixed in a 1:1 ratio, and 200 µL of the mix was added to dry samples to be derived. For the derivation, the samples were incubated for 3h at 50°C. DMF was then evaporated using a Genevac™ device, under vacuum, at 60°C for 4h.
Before injection, the samples were solubilized in a 90/10 acetonitrile/isopropanol mixture with 1% HCl. After solubilization, the samples were stirred and centrifuged at 4000 rpm for 20 min at 10°C.
For the separation of the derived fatty acids by liquid chromatography, a Waters Acquity ultra-performance liquid chromatography (UPLC) system (Acquity I-Class, Waters) was used. […]
After separation by liquid chromatography, the analytes were subjected to MS analysis using a Waters Xevo TQSmicro system (Waters). […] The molecules were analyzed using MRM (multiple reaction monitoring) mode, with the main daughter ion for each derived fatty acid corresponding to the loss of a trimethylammonium moiety (m/z 59). Derived FAs with a chain length from 16 to 28, with no or one unsaturation, were analyzed. […] The acquired data were analyzed by the Waters MassLynx software.

PEX405 cells [2] = type: cell-based; settings: 3 days, PI positive cells (dead cells)
Method: (§4) Images were acquired using the EnSight multimode plate reader (PerkinElmer) and analysis was done using Columbus analysis software (PerkinElmer). […] Then the total number of cells and the % of dead cells was calculated.
(§5) All HDAC inhibitors were tested at 1.3 and 10 µM for 3 days on GM16513 and PEX405 cells.

GM16513 cells [3] = experiment: Plasmalogens synthesis (LC-MS/MS); type: cell-based, human
Method: (§1) The assay was performed in T75 culture flasks for 3 or 10 days. The medium was replaced by fresh medium every 2-3 days. After 3 or 10 days, the cells were harvested and lysated in water (100-200 µL) by freeze/thaw cycle and sonication for 5 min. Total proteins were quantified using BCA assay and 100 µg of total proteins were used for each sample.
(§2) After cell lysis, the samples were dried using a rotating evaporator (Genevac EZ-2, SP Scientific), set at 40°C for 2h under vacuum. Then a solution containing water/acetonitrile 20/80 v/v was added to the wells. Before analysis, the samples were centrifuged at 4000 rpm for 20 min at room temperature. For the separation of plasmalogens by liquid chromatography, a Waters Acquity ultra-performance liquid chromatography (UPLC) system (Acquity I-Class, Waters) was used. A Waters Acquity UPLC BEH (Ethylene Bridged Hybrid) C8 column (2.1 × 50mm, particle size 1.7 µm, pore size 130 A, 2.1mm inner diameter) preceded by a metal pre-filter (KrudKatcher Ultra HPLC In-Line Filter, AF0-8497, Phenomenex) was used for separation. The column temperature was maintained at 50°C. The injection volume was 5µL for each analysis. The mobile phase A was composed of water + 0.1% formic acid and the mobile phase B was methanol + 0.1% formic acid. The separation was done using a gradient, with a flow rate set at 0.7 mL/min throughout the separation:
(§3) During analysis, the samples were kept at 10°C, and 5 µL of each sample were injected. After separation by liquid chromatography, the analytes were subjected to MS/MS analysis using a Waters Xevo TQSmicro system (Waters). The analytes were ionized using positive electrospray ionization (positive ESI). The molecules were analyzed using MRM mode. The analyzed plasmalogens contained moieties with C16:0, C18:0, C18:1 at the sn-1 position and fatty acid of chain-length 18 to 24 with 1 to 6 unsaturations at the sn-2 position. […] The cellular levels of plasmalogens were calculated using the area of each plasmalogen divided by protein quantity. […] The acquired data were analyzed by the Waters MassLynx software.

PEX405 cells [4] = experiment: Plasmalogens synthesis (LC-MS/MS); type: cell-based, human; settings: treatment over 3 days
Method: as §1, §2, §3

GM16513 cells [5] = type: cell-based; settings: 3 days, PI positive cells (dead cells)
Method: as §4, §5

Row | Structure (SMILES) | d4-C16,C18,C20 and C22 levels (PEX405 cells [1]) | % PI+ cells (PEX405 cells [2]; 1.3 µM) [%] | % PI+ cells (PEX405 cells [2]; 10 µM) [%] | plasmalogen levels (GM16513 cells [3]; treatment over 3 days) | plasmalogen levels (PEX405 cells [4]) | % PI+ cells (GM16513 cells [5]; 1.3 µM) [%] | % PI+ cells (GM16513 cells [5]; 10 µM) [%] | plasmalogen levels (GM16513 cells [3]; 0.5 µM over 3 or 10 days)
1 | CCN(CC)Cc1ccc2cc(COC(=O)Nc3ccc(C(=O)NO)cc3)ccc2c1 [Givinostat (hydrochloride monohydrate), Givinostat] | increase | 3 | 41 | increased | increased | 6 | 29 | –
2 | O=C(/C=C/c1cccc(S(=O)(=O)Nc2ccccc2)c1)NO [Belinostat] | – | 1 | 42 | – | – | 4 | 21 | increased

— patent publication EP4410284A1, “COMPOUND AND METHOD FOR THE TREATMENT OF ZELLWEGER SPECTRUM DISORDER” (Apteeus, priority 2023, dated 2024)
